# Experimental data reported in the supplement of paper PMC6045584.
# ± gives the standard deviation of the averaged measurements.
# Key:
# [1] = compound: Cc1c(N)nc([C@H](CC(N)=O)NC[C@H](N)C(N)=O)nc1C(=O)N[C@H](C(=O)N[C@H](C)[C@@H](O)[C@H](C)C(=O)N[C@H](C(=O)NCCc1nc(-c2nc(C(=O)NCCC[S+](C)C)cs2)cs1)[C@@H](C)O)[C@@H](OC1OC(CO)C(O)C(O)C1OC1OC(CO)C(O)C(OC(N)=O)C1O)c1cnc[nH]1 [BLEOMYCIN]; test: surviving fraction relative to DMSO-only wells; higher = less growth inhibition; settings: exposure time: 5 days
# Summary of the method: (§1)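 Lines were retained only if, across three screens, replicate Pearson r was >0.7 and median Z' was >0.3. Viability was measured as CellTiter-Glo luminescence and reported as surviving fraction relative to the median of DMSO-only wells. Readings followed 10 minutes at room temperature, after log-phase tumour cells seeded at 250–500 per well in 384-well plates had been exposed, from 24 hours after seeding, continuously for five days to inhibitors at 0.5, 1, 5, 10, 50, 100, 500 and 1000 nM.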
# [2] = compound: Cn1ncnc1[C@H]1c2n[nH]c(=O)c3cc(F)cc(c23)N[C@@H]1c1ccc(F)cc1 [BMN-673]; test: as above; settings: exposure time: 5 days
# Summary of the method: as §1
Test System,surviving fraction ([1]; 0.5 nM),surviving fraction ([1]; 1 nM),surviving fraction ([1]; 5 nM),surviving fraction ([1]; 10 nM),surviving fraction ([1]; 50 nM),surviving fraction ([1]; 100 nM),surviving fraction ([1]; 500 nM),surviving fraction ([1]; 1000 nM),surviving fraction ([2]; 0.5 nM),surviving fraction ([2]; 1 nM),surviving fraction ([2]; 5 nM),surviving fraction ([2]; 10 nM),surviving fraction ([2]; 50 nM),surviving fraction ([2]; 100 nM),surviving fraction ([2]; 500 nM),surviving fraction ([2]; 1000 nM)
HUO3N1 BONE,0.898 ± 0.053,0.897 ± 0.0087,0.924 ± 0.016,0.908 ± 0.044,0.957 ± 0.031,0.892 ± 0.059,0.676 ± 0.0053,0.532 ± 0.025,0.991 ± 0.023,0.998 ± 0.043,0.945 ± 0.038,0.9 ± 0.014,0.8017 ± 0.0063,0.658 ± 0.015,0.448 ± 0.03,0.357 ± 0.021
JIMT1 BREAST,0.823 ± 0.056,0.82 ± 0.043,0.842 ± 0.019,0.874 ± 0.048,0.952 ± 0.059,0.927 ± 0.028,0.825 ± 0.058,0.698 ± 0.059,0.928 ± 0.041,0.913 ± 0.025,0.848 ± 0.011,0.822 ± 0.011,0.71 ± 0.035,0.617 ± 0.063,0.474 ± 0.027,0.395 ± 0.033
JURKAT HAEMATOPOIETIC AND LYMPHOID TISSUE,1.01 ± 0.02,1.02 ± 0.016,0.986 ± 0.016,0.977 ± 0.012,0.916 ± 0.017,0.786 ± 0.026,0.232 ± 0.0061,0.122 ± 0.0062,1.04 ± 0.027,1.04 ± 0.015,0.863 ± 0.035,0.838 ± 0.014,0.601 ± 0.049,0.503 ± 0.033,0.123 ± 0.007,0.0493 ± 0.0047
KPD BONE,0.862 ± 0.01,0.828 ± 0.062,0.875 ± 0.021,0.891 ± 0.034,0.767 ± 0.018,0.699 ± 0.018,0.495 ± 0.04,0.407 ± 0.014,0.971 ± 0.046,0.877 ± 0.053,0.814 ± 0.045,0.463 ± 0.28,0.531 ± 0.03,0.437 ± 0.02,0.338 ± 0.01,0.3337 ± 0.0032
LM7 BONE,0.745 ± 0.055,0.756 ± 0.039,0.834 ± 0.029,0.823 ± 0.091,0.91 ± 0.048,0.767 ± 0.05,0.402 ± 0.022,0.289 ± 0.044,0.975 ± 0.042,0.987 ± 0.068,0.764 ± 0.051,0.573 ± 0.028,0.395 ± 0.027,0.312 ± 0.028,0.227 ± 0.015,0.197 ± 0.024
LNCAP PROSTATE,1.18 ± 0.11,1.04 ± 0.038,1.14 ± 0.085,0.96 ± 0.15,1.03 ± 0.061,0.868 ± 0.076,0.847 ± 0.074,0.595 ± 0.072,0.85 ± 0.052,0.849 ± 0.05,0.604 ± 0.059,0.407 ± 0.037,0.297 ± 0.015,0.254 ± 0.0095,0.181 ± 0.014,0.165 ± 0.022
MCF7 BREAST,0.816 ± 0.033,0.821 ± 0.015,0.819 ± 0.007,0.779 ± 0.05,0.829 ± 0.037,0.847 ± 0.028,0.787 ± 0.0039,0.7254 ± 0.0065,0.952 ± 0.053,0.95 ± 0.069,0.838 ± 0.029,0.802 ± 0.046,0.756 ± 0.03,0.732 ± 0.026,0.679 ± 0.024,0.62 ± 0.011
MDAMB134 BREAST,0.714 ± 0.15,0.771 ± 0.044,0.844 ± 0.011,0.724 ± 0.047,0.804 ± 0.04,0.862 ± 0.12,0.733 ± 0.091,0.753 ± 0.088,0.955 ± 0.085,0.908 ± 0.14,0.971 ± 0.057,0.929 ± 0.014,1.01 ± 0.067,0.991 ± 0.025,0.857 ± 0.23,0.775 ± 0.08
MDAMB157 BREAST,0.89 ± 0.033,0.915 ± 0.045,0.788 ± 0.033,0.863 ± 0.025,0.815 ± 0.047,0.736 ± 0.07,0.476 ± 0.016,0.288 ± 0.056,0.999 ± 0.13,0.944 ± 0.081,0.844 ± 0.084,0.795 ± 0.1,0.541 ± 0.01,0.392 ± 0.01,0.228 ± 0.017,0.257 ± 0.036
MDAMB231 BREAST,0.961 ± 0.017,0.958 ± 0.018,0.978 ± 0.014,0.935 ± 0.019,0.887 ± 0.028,0.845 ± 0.021,0.642 ± 0.029,0.504 ± 0.01,0.98 ± 0.029,0.972 ± 0.02,0.898 ± 0.019,0.838 ± 0.022,0.711 ± 0.053,0.639 ± 0.011,0.523 ± 0.021,0.454 ± 0.03
